Test results as given in US20260000763A1, “Methods of Manufacturing Therapeutic Cells” (The Board of Trustees of the Leland Stanford Junior …, priority 2022, published 2026).
“Also recorded” adds a separate entry of the source.

Assays:
[1] = test system: Nalm6-GD2, 143b and CHL255 tumor cell lines; test: Co-culture of HA CAR T cells with GD2-expressing tumor lines: IncuCyte killing, IL-2 and IFNγ secretion; format: cell-based, human; conditions: for antigen induced IFNγ secretion: Nalm6-GD2 24 hrs, D14 cells, INO in presence or absence of glucose
CAR T cells = test: Seahorse analysis, ATP5 expression and ATP levels of CAR T cells manufactured in inosine; format: cell-based
Description: A and B: Seahorse analysis of CAR T cells at day 11 post-activation. Representative graphs of n=1-2 donors are shown. P values were determined by unpaired two-tailed t-tests. C: Flow analysis of ATP5 expression by CD8+ CAR T cells at day 17 post-activation. Representative histograms of two donors are shown. D: ATP levels in CAR T cells at day 14 post activation. Results from two independent experiments are shown (n=2).
Studied next was the effect of inosine on CAR T cell metabolism. […] Furthermore, the total amount of ATP generated by CAR T cells grown in the presence of inosine was increased (FIG. 4D).

HA-CAR T cells [2] = test: Expansion of HA-CAR T cells in media with glucose and/or inosine; inosine dose response; format: cell-based, human
[3] = test system: HA-CAR T cells and CD19.28z-CAR T cells; test: Cell cycle state by BrdU and 7AAD staining; format: cell-based; conditions: day 10, vs control cells, presence or absence of glucose
Excerpt: 9A: Schematic of the experimental design. […] Graphs represent median expression of indicated markers. […] Representative donor of n=2 donor shown. […] Data are mean+SD from triplicate wells. […] 9K: Schematic of the experimental design. […] Representative donor of n=3 donor shown. […] Representative donor of n=2 donor shown. […] (Top) Dot plots of representative donor shown. […] Representative donor of n=3 donor shown. […] N=2-4 donors from independent experiments. […] N=2-6 donors from independent experiments. […] N=2-4 donors from independent experiments. […] (Top) representative dot plots shown.
Further tested was whether similar functional enhancement occurred with INO exposure in the presence or absence of glucose by serially challenging HA-INO-CAR cells grown in the presence or absence of glucose with Nalm6-GD2. […] Decreased proliferation can be associated with induction of stemness or cells entering quiescence state.

HA-CAR T cells [4] = test: Improvement index overlapped with proliferation to set a therapeutic window for inosine; format: cell-based, human; conditions: 11 mM glucose plus 0.5-11 mM inosine tested; improvement index vs proliferation
Description: FIG. 7F: Improvement index calculation scheme.
FIG. 7G: Scatter plot showing correlation between improvement index (y-axis-in black) or proliferation (y-axis-in red) and inosine concentration (x-axis). […] N=2-6 donors from independent experiments.
To establish a therapeutic window for inosine addition, an improvement index was calculated. The index represents a sum of fold change in frequency of CCR7+CD8+ and CD62L+CD8+ at the base line and fold change in IL-2 and IFNγ secretion after 24 hours stimulation with Nalm6-GD2 tumor line by HA-CAR T cells manufactured in 11 mM of glucose and various concentrations of inosine (0.5-11 mM) as compared to control (FIG. 7F).

[5] = test system: HA-CAR T cells and CD19-CAR T cells; test: Seahorse analysis of mitochondrial fitness; cell size; format: cell-based
Description: To measure mitochondrial fitness in CAR T cells cultured in the presence or absence of INO, Seahorse analysis was performed.

GD2-CAR T cells = GD2-CAR T cells manufactured in TexMACS with increasing concentrations of INO; format: cell-based
Description: FIG. 13A-13H: Clinical scale manufacturing of clinical grade GD2-CAR T cells using media containing inosine, improves CAR product quality. A: Schematic of large-scale manufacturing of GD2.bbz-CAR+ T cells in a semi-closed G-Rex system in glucose-or inosine-containing media. 7 days post-activation, transduction efficiency, percentage of viable cells, and CD4/CD8 ratio of GD2+ cells were assessed by flow cytometry. […] B: Expansion of total viable T cells manufactured in control (black) vs. inosine (green)-containing media and (Right) corresponding number of CAR+ cells at day 7. […] C: IL-2 and IFNg secretion by CAR T cells stimulated for 24 hrs with 143b, mg63.3 or Nalm6-GD2 tumor lines. […] D: NSG mice were injected with 1×10^6 Nalm6 leukemia cells. On day 3 post-tumor injection, 2×10^6 of mock or GD2.bbz-CAR T cells manufactured in the presence of inosine or in regular media were transferred intravenously. Tumor growth was monitored by bioluminescent imaging. […] P values determined at day 43 by using Mann-Whitney test. […] E: Concentration of CD45+ T cells detected in blood of mice at D33 post-CAR T cell injection. […] F: Schematic of the experimental design. G: GD2.bbz-CAR T cells grown in media containing indicated inosine concentration between day 3 and day 10 post-activation and stimulated with 143b tumor. IL-2 and IFNg secretion after 24 hrs of co-culture was measured. Data are mean±s.d. of duplicate or triplicate wells. Representative of n=3 donors shown. […] Reprograming is due to an increase in glutaminolysis and polyamine synthesis and downregulation of CD73, FOXP3, A2aR and c-AMP response transcription factors.
Finally, to test compatibility of adding INO to GMP-grade culture media that contains glucose, GD2-CAR T cells were manufactured in TexMACS™ with increasing concentrations of INO (FIG. 13F).

HA-CAR T cells [6] = test system: HA-CAR T cells
Description: 9D: Levels of expression of indicated purinergic pathway gene transcripts from bulk RNA samples. Data are mean+/−s.e.m. from n=3 donors. P values determined by paired two-tailed t-tests. *, P<0.05; **, P<0.01; ***, P<0.001; **** P<0.0001. […] Histograms of representative donor (Left) and pooled data from n=8 donors shown (Right). P values determined by paired two-tailed t-tests. *, P<0.05; **, P<0.01; ***, P<0.001; ****, P<0.0001. 9F: UMAP plots of day 14 CD8+ (top) and CD4+ (bottom) HA-or HA-INO-CAR T cells analyzed using CyTOF. 9,000 or maximum of CD4+ CAR T cells from each condition from n=4 donors were organized by their combined expression of 5 exhaustion markers. Graphs represent median expression of indicated markers. P values determined by paired two-tailed t-tests. *, P<0.05; **, P<0.01; ***, P<0.001; ****, P<0.0001. 9G: Histograms showing GD2 antigen expressed by Nalm6-GD2 and 143b tumor lines with corresponding number of molecules per cell. 9H: Co-cultures of HA, HA-ADA-O/E-or HA grown in INO stimulated with Nalm6-GD2 (1:8 E: T) at day 14 post-activation. Tumor GFP fluorescence intensity was normalized to the first time point (duplicate or triplicate wells). Representative donor of n=2 donor shown. P values determined by two-way ANOVA with Dunnett's multiple comparisons test. *, P<0.05; **, P<0.01; ***, P<0.001; ****, P<0.0001. […] Error bars represent mean+SD of triplicate wells from one representative donor of n=1-2 donors. P values determined by unpaired two-tailed t-tests. *, P<0.05; **, P<0.01; ***, P<0.001; ****, P<0.0001. 9J: IL-2 release after 24h of CD19.4-1BBz-CAR T cells stimulated with Nalm6 tumor line alone or in co-culture with HA-or HA-INO-CAR T cells at 1:1:1 ratio. Data are mean+SD from triplicate wells. N=1 donor. *, P<0.05; **, P<0.01; *** P<0.001; ****, P<0.0001. […] Data polled from n=5 donors from independent experiments. P values determined by paired two-tailed t-tests *, P<0.05; **, P<0.01; ***, P<0.001; ****, P<0.0001. […] Tumor GFP fluorescence intensity was normalized to the first time point (duplicate or triplicate wells). Representative donor of n=3 donor shown. P values determined by two-way ANOVA with Dunnett's multiple comparisons test. *, P<0.05; **, P<0.01; ***, P<0.001; ****, P<0.0001. 9N: Co-cultures of CD19, or CD19-CAR T cells grown in INO media starting from indicated days post-activation and Nalm6-GD2 (1:10 E: T) starting at day 15 post-activation. Tumor GFP fluorescence intensity was normalized to the first time point (duplicate or triplicate wells). Representative donor of n=2 donor shown. P values determined by two-way ANOVA with Dunnett's multiple comparisons test. *, P<0.05; **, P<0.01; ***, P<0.001; ****, P<0.0001. […] Data are mean±s.e.m. of n=3-5 donors. P values determined by paired two-tailed t-tests. *, P<0.05; **, P<0.01; ***, P<0.001; ****, P<0.0001.

For `O=c1[nH]cnc2c1ncn2[C@@H]1O[C@H](CO)[C@@H](O)[C@H]1O` [inosine, Inosine], the cytotoxic function ([1]; INO added on day 4, 7, 10 or 14, 143b 1:1 E:T from day 15) was “increased cytotoxic function”, the “antigen induced IFNγ secretion” value [1] was “significantly enhanced antigen induced IFNγ secretion” and the “antigen induced IFNγ secretion” value ([1]; listed as INO) was “enhanced antigen induced IFNγ secretion”. The “tumor killing and cytokine secretion after multiple stimulations” value ([1]; serial challenge with Nalm6-GD2 1:1, glucose present or absent during manufacturing) was “enhanced tumor killing and cytokine secretion”, the “ATP5 (Complex V) protein expression” value (CAR T cells; CD8+ CAR T cells, day 17, flow) was “increased level” and the bioenergetic profile (CAR T cells; Seahorse, day 11) was “shifting it towards oxidative phosphorylation”. The “extracellular acidification rate (ECAR)” value (CAR T cells; Seahorse, day 11 post-activation) was “significantly decreased”, the “total amount of ATP generated” value (CAR T cells; day 14) was “increased” and the “dose response on diminished proliferation, increased CD62L expression and increased IFNγ production” value (HA-CAR T cells [2]; 0-11 mM INO in RPMI containing 11 mM glucose, without a plateau) was “clear dose dependent effect”. The “expansion of HA-CAR T cells” value (HA-CAR T cells [2]; day 4 to day 10, 11 mM INO in presence or absence of 11 mM glucose, listed as INO) was “diminished expansion; also recorded: significantly reduced expansion”, the cell cycle distribution [3] was “higher proportion of cells in S/G2+M phase” and the “inosine concentration range improving phenotype and function without complete inhibition of expansion (therapeutic window)” value (HA-CAR T cells [4]) was 2.75 to 11 mM. For the same compound, the “metabolic profile of non-tonic signaling CD19-CAR T cells” value ([5]; Seahorse, day 11) was “memory-like metabolic profile”, the “basal oxygen consumption rate (Basal OCR)” value ([5]; day 11, control vs INO cultured cells) was “did not differ” and the “size of the cells” value ([5]; day 13 post-activation) was “increased size”. The “antigen induced cytokine production” value (GD2-CAR T cells; INO 11 mM vs lower concentrations) was “trend toward greater antigen induced cytokine production”, the cell proliferation (GD2-CAR T cells; TexMACS (contains glucose) with increasing INO) was “significantly decreased cell proliferation” and the “CAR T cell viability” value (GD2-CAR T cells; TexMACS with increasing INO) was “no changes”. For the same compound, the “secretion of IL-2 and IFNg” value (GD2-CAR T cells; challenged with 143b cells, 24 hrs, INO day 3 to day 10) was “dose-dependent increase”, the CD62L expression (GD2-CAR T cells; vs control cells) was “increased CD62L expression” and the “expression of ornithine decarboxylase (ODC), spermidine synthase and elF5A” value (HA-CAR T cells [6]; HA vs HA-INO) was “increased expression”. For the same compound, the “genes associated with TCR signaling” value (HA-CAR T cells [6]; HA vs HA-INO) was “diminished expression”, the “genes associated with glutaminolysis and polyamine synthesis” value (HA-CAR T cells [6]; HA vs HA-INO, day 14) was “increased expression” and the “genes associated with glycolysis and glucose driven metabolism (PFKP, ALDOA, GAPDH, PGK, ENO1)” value (HA-CAR T cells [6]; HA vs HA-INO, day 14) was “downregulation”. For the same compound, the “variance in principal component analysis attributed to INO exposure” value (HA-CAR T cells [6]; bulk RNA-seq PCA) was 41.3%.
